In assay [1] the target is T1, Voltage-gated N-type calcium channel alpha-1B subunit/Amyloid beta A4 precursor protein-binding family A member 1 (Homo sapiens, UniProt Q00975+Q02410). The assay is classed as protein assay.
The target of assay [2] is T1, Voltage-gated N-type calcium channel alpha-1B subunit/Amyloid beta A4 precursor protein-binding family A member 1. It is filed as protein assay. This is another data set of the same source.
The target of assay [3] is T2, Mannose-6-phosphate isomerase (Homo sapiens, UniProt P34949).
T2 sequence (P34949 whole entry): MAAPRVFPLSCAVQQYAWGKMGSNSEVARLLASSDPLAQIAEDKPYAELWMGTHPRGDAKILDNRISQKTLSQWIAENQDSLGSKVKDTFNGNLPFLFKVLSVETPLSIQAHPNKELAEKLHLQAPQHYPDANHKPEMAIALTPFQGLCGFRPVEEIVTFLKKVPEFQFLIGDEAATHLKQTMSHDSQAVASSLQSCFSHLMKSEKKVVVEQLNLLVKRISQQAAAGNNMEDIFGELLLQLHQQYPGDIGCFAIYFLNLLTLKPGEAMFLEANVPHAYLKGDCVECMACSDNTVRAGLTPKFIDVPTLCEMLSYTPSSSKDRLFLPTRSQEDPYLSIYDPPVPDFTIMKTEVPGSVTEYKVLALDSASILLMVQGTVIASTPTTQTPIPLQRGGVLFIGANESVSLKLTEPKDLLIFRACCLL
As to the kind of experiment: human PMI inhibitors, high substrate, primary screen, biochemical, fluorescence intensity, high mannose 6-phosphate (AID 1220).

Another assay concerns the target SUMO-activating enzyme (Homo sapiens, UniProt Q9UBT2). As to the kind of experiment: inhibitors of in vitro SUMOylation cascade, primary screen, biochemical, HTRF, uHTS (AID 2006). The assay is classed as protein-complex assay.
Assay [4] has as its target Alkaline phosphatase, placental type (Homo sapiens, UniProt P05187). As to the kind of experiment: PLAP enzyme inhibitors, confirmation, biochemical, luminescence (AID 1512). The assay is classed as functional.
Assay [5] addresses T3, Alkaline phosphatase, tissue-nonspecific isozyme (Homo sapiens, UniProt P05186).
T3 sequence (P05186 whole entry): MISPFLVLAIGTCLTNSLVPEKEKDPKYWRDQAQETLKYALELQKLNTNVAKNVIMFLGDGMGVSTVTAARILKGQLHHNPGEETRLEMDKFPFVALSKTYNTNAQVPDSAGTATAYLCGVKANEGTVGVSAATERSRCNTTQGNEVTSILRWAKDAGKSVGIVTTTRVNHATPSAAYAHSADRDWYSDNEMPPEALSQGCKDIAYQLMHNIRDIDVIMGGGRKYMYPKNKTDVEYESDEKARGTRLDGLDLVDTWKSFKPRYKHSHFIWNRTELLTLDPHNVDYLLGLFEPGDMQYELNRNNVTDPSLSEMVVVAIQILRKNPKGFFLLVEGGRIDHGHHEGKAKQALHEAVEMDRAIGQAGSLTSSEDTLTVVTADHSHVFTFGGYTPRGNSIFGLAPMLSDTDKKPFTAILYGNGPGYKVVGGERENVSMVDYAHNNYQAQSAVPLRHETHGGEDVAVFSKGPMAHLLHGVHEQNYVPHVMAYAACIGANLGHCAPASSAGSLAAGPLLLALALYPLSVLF
As to the kind of experiment: human TNAP enzyme inhibitors, SAR follow-up, biochemical, luminescent, dose response (AID 1056).

In the next assay the target is Coagulation factor XII (Homo sapiens, UniProt P00748). The assay is classed as functional.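 Further: activated factor XIIa alpha cleaving a fluorogenic AMC peptide substrate; inhibitor potency from loss of enzyme activity.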
Chain of Coagulation factor XII (P00748 20-372 limits assumed): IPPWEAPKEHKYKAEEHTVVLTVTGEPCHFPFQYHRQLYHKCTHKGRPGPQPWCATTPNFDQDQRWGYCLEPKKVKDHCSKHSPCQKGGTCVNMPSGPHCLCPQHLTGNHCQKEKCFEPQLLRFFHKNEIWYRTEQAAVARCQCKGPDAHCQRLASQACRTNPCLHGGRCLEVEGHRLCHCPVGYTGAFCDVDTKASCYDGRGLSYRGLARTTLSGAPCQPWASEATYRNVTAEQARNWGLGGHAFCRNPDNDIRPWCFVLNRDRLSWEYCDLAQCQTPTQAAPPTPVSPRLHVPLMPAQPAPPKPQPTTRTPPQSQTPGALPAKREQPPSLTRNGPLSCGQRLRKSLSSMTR
Chain of Coagulation factor XII (P00748 373-615 limits assumed): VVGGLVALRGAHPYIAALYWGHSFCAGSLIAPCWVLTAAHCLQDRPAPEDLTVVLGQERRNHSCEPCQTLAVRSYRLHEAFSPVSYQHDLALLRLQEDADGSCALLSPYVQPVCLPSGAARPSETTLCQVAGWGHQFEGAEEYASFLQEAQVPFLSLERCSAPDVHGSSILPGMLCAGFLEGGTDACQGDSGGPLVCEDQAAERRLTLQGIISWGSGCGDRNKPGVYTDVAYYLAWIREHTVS
Another assay has as its target Aminopeptidase N (Plasmodium falciparum FcB1/Columbia, UniProt O96935). As to the kind of experiment: P. falciparum M1AAP inhibitors, biochemical, fluorogenic H-Leu-NHMec substrate, 1536-well (AID 1445). Further details: species or system Plasmodium falciparum 3D7, 3D7.
Assay [6] concerns the target T4, Polyadenylate-binding protein 1 (Homo sapiens, UniProt P11940). Kind of assay: PABP1 MLLE–PAM2 interaction inhibitors, dose response, miRNA deadenylation inhibitor project, biochemical, fluorescence polarization, Cy5-PAM2 peptide, secondary (AID 602260). It is filed as functional. The following applies: read-out: IC50_Mean. For orientation: Polarisation of emitted light reports the rotation of a fluorescent probe.

Assay [7] deals with T4, Polyadenylate-binding protein 1. Kind of assay: PABP1 MLLE–PAM2 binding inhibitor potency, dose response, biochemical, fluorescence polarization, FITC-PAM2 peptide (AID 602259). The assay is classed as functional. The note with it: read-out: IC50_Mean.
Assay [8] addresses Voltage-dependent T-type calcium channel subunit alpha-1H (Homo sapiens, UniProt O95180). As to the kind of experiment: Cav3.2 T-type channel inhibitors, cell-based, synthetic library set 1, calcium flux (AID 493022). The assay is classed as functional. (In general: Calcium flux is commonly read through the fluorescence of an indicator in the cells.)
The next assay deals with T5, CAAX prenyl protease 2 (Saccharomyces cerevisiae S288c, UniProt Q03530).
T5 sequence (Q03530 whole entry): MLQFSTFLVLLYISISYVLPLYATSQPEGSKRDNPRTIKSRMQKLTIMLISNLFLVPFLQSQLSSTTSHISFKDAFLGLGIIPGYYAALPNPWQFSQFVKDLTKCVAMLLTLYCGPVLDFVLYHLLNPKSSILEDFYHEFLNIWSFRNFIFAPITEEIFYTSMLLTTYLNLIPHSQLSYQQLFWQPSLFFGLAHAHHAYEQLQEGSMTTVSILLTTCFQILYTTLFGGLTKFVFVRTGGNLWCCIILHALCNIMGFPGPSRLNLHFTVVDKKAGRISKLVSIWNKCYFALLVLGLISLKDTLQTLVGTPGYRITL
It is filed as biochemical.

The next assay addresses Trypsin (Sus scrofa, UniProt P00761). As to the kind of experiment: porcine trypsin inhibitors, dose response, selectivity assay for Rce1 protease inhibitor project, biochemical, quenched peptide fluorescence, cherry-pick (AID 488789).
The target of the next assay is Hexokinase (Trypanosoma brucei, UniProt Q38C41). Kind of assay: Confirmation assay for inhibitors of Trypanosoma brucei hexokinase 1-Analogue-first series. [Related pubchem assays (depositor defined):AID1430, AID1632, AID2516, AID2560, AID2579, AID2600, AID449725, AID492951]. It is filed as functional.
The target in a further assay is Beta Lactamase (Pseudomonas aeruginosa, UniProt Q932Y6). Kind of assay: beta-lactamase reporter inhibitor potency, dose response, artefact control for NOD2-RIPK2 interaction inhibitor project, BLA reporter cells, FRET fluorescence (AID 651552). The assay is classed as functional, cell-based.
Assay [9] is described as follows: growth suppression of beta-catenin-knockout colon cells, dose response, cell-based, HCT116, human colon tumor (AID 1045).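 Further: HCT116 colon tumor cells with beta catenin knocked out; cells exposed to compound for 60 hours.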 The assay is classed as functional.
Assay [10] in a line: Fluorescence-based cell-based high throughput dose response assay for inhibitors of the interaction of nucleotide-binding oligomerization domain containing 2 (NOD2) and the receptor-interacting serine-threonine kinase 2 (RIPK2). The following applies: Homo sapiens. It is filed as functional.
The nature of assay [11]: growth suppression of PTEN-null colon cells, dose response, cell-based, HCT116 PTEN knockout (AID 1047).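 Further: HCT116 colon tumor cells with PTEN knocked out; cells exposed to compound for 60 hours before readout; potency for loss of cell viability measured by luminescence.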 The assay is classed as functional.
Another assay addresses T6, Hexokinase HKDC1 (Homo sapiens, UniProt Q2TB90).
T6 sequence (Q2TB90 whole entry): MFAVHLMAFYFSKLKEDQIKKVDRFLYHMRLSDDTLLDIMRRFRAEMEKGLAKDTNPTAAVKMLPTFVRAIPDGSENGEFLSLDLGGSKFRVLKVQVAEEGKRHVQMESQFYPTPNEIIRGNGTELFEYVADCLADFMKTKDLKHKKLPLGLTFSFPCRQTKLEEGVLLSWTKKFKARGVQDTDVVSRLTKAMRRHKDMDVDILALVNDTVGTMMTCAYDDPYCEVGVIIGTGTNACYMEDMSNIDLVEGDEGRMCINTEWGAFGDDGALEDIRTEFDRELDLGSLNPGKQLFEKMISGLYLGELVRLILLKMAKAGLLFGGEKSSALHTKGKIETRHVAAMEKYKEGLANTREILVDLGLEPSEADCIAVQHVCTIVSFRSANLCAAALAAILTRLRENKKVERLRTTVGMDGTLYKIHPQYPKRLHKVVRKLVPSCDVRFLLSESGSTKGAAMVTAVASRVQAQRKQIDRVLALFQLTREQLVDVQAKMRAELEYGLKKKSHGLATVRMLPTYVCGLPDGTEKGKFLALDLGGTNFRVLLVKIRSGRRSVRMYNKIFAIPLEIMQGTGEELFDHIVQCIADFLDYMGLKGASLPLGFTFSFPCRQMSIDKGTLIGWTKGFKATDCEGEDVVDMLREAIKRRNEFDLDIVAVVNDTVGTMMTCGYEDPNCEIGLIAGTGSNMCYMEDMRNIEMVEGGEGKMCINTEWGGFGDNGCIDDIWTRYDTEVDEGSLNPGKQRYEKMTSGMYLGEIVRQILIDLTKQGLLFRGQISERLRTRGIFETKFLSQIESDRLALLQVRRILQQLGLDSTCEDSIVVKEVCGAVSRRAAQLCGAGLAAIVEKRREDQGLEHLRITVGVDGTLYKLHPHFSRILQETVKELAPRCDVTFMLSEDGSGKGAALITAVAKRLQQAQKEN
Kind of assay: HKDC1 hexokinase inhibitors, dose response, biochemical, W721R variant (AID 504729). The assay is classed as functional.

The source made the active and inactive calls.

T1 sequence (Q00975 whole entry): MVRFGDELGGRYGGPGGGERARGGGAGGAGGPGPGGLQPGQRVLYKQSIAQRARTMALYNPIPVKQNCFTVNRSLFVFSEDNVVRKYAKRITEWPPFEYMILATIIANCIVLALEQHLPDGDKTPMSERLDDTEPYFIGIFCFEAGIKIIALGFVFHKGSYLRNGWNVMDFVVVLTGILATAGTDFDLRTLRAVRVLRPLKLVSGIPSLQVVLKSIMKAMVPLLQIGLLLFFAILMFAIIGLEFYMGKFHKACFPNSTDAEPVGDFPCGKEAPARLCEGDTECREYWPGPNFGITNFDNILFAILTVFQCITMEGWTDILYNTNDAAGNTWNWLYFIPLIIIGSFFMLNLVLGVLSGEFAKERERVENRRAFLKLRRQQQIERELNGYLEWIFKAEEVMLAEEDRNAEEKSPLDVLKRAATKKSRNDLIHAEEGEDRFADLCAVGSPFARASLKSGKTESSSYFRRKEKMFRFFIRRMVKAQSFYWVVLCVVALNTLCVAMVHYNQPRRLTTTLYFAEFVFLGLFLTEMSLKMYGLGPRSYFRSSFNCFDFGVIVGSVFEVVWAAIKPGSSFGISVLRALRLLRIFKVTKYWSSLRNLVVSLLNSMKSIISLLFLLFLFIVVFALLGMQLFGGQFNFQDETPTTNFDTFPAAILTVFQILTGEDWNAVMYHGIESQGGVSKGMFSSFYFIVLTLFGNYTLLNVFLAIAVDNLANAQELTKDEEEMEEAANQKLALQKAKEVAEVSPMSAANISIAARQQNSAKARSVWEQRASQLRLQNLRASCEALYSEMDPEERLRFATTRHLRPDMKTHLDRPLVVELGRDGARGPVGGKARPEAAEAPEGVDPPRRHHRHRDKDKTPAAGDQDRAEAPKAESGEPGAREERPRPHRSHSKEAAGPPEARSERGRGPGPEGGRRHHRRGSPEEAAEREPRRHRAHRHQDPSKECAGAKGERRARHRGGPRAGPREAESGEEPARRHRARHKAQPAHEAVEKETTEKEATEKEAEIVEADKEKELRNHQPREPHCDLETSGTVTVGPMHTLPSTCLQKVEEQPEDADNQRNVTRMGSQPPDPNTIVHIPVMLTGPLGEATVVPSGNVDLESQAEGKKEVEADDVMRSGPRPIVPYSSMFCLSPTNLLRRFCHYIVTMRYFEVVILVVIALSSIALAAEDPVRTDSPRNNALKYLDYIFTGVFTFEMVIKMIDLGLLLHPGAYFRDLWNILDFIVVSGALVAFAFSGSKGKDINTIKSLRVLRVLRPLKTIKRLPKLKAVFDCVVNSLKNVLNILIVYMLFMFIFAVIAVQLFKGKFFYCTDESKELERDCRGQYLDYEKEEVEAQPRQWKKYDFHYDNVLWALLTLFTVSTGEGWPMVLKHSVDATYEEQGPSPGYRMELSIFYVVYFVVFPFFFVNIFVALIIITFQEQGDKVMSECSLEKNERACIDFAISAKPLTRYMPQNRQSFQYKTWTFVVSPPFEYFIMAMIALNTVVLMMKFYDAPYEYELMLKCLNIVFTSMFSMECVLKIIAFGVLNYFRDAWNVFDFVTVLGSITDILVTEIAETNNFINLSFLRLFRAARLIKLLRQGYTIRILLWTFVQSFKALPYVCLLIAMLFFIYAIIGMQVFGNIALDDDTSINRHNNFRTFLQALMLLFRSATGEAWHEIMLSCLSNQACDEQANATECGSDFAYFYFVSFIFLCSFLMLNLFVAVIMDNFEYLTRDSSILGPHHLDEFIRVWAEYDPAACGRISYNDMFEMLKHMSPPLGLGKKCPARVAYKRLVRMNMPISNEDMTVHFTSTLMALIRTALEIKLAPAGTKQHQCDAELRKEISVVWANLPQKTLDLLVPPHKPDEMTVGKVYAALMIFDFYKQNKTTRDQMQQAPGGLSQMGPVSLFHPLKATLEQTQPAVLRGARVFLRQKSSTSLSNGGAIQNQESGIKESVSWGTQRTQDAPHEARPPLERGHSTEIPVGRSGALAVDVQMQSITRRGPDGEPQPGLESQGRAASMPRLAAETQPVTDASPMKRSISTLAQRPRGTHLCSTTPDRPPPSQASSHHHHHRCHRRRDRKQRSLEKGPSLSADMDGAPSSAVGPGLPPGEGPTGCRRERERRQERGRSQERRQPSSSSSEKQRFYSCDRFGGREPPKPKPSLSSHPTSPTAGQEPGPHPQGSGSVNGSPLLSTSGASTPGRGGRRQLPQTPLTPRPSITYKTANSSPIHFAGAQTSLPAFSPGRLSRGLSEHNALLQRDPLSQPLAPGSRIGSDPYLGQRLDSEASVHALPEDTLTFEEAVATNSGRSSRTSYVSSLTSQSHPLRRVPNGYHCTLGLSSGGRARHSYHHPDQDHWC
T1 sequence (Q02410 whole entry): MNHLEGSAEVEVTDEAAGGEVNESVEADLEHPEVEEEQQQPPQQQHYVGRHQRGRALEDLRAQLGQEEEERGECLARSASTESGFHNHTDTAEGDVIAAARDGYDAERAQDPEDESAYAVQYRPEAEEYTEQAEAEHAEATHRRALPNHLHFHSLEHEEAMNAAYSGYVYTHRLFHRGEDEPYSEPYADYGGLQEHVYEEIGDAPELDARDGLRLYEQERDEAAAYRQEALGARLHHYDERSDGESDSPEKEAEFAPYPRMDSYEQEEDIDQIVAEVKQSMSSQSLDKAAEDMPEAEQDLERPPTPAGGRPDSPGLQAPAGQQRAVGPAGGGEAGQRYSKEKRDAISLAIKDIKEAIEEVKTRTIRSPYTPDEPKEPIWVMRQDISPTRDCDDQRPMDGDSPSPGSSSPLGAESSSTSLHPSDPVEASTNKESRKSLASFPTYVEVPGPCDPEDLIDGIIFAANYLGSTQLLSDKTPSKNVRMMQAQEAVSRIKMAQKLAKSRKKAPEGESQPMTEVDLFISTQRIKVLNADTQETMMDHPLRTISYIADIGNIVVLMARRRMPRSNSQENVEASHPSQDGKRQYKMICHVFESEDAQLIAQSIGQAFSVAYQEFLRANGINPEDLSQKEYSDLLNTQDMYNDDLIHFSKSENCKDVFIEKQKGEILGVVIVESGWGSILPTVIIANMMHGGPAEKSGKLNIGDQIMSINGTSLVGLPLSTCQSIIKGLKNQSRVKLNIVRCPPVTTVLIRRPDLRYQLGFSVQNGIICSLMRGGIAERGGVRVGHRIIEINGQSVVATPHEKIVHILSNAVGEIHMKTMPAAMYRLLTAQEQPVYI
T4 sequence (P11940 whole entry): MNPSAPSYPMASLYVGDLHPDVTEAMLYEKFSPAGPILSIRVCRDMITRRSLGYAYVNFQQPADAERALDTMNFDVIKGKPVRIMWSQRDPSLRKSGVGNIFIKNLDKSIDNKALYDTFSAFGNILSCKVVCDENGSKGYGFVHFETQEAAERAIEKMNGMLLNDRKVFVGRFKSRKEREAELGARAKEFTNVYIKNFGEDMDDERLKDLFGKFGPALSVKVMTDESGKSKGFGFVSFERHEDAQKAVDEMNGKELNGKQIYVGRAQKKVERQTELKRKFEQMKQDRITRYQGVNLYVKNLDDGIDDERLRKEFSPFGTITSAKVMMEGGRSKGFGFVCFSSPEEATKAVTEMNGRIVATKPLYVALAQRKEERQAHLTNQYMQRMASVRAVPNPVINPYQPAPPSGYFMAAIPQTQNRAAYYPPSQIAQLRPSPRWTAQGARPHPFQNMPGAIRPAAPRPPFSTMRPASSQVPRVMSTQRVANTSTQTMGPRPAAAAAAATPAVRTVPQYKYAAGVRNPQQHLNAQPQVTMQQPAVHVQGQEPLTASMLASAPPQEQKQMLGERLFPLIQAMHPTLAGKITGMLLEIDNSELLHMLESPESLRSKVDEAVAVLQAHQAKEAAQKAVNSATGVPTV
Chain of Alkaline phosphatase, placental type (P05187 whole entry): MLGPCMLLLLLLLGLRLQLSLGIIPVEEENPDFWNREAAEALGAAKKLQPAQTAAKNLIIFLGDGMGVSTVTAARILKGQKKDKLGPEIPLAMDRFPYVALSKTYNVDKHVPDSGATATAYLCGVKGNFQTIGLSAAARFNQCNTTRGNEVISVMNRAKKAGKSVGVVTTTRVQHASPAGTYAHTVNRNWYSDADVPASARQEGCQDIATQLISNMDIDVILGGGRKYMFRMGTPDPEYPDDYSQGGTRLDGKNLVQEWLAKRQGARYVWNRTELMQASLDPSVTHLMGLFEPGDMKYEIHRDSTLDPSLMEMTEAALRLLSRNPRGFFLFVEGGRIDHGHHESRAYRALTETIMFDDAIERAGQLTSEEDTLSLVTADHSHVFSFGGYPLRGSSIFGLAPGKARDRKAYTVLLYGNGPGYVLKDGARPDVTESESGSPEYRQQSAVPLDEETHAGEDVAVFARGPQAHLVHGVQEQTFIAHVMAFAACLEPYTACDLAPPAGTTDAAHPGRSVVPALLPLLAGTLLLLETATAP

In the case of `COc1ccc(-c2cc3c(=O)n(CC(=O)Nc4ccc(C(C)=O)cc4)ncn3n2)cc1`, the IC50 in assay [1] is 7.89 µM (active); in [2], > 50 µM (inactive). Take `CCN(CC)C(=O)C1CCCN(C(=O)Nc2ccc3nsnc3c2)C1` (stereo not drawn): the results for the IC50 (in assay [3]; on SUMO-activating enzyme) were > 50 µM (not active) and 12 µM (active), respectively. Consider `CCCCN1C(=O)/C(=N\Nc2ccccc2Cl)c2ccccc21`, for which the values for the IC50 in assay [4] and in assay [5] were 91.6 µM (active) and > 100 µM (inactive), respectively. Take `c1ccc(-n2cccc2)c(N2CCCCC2)c1`: the IC50 at Coagulation factor XII is > 50 µM (inactive).

For the compound `CCNc1cc2oc(=O)c(CN3CCOCC3)c(C)c2cc1C`, the results for the IC50 (at Aminopeptidase N; in assay [6]; in assay [7]) were 32.2 µM (active), > 66 µM (inactive) and > 66 µM (inactive), respectively. For orientation: EC50 means the concentration needed to bring the measured effect to its halfway point. In the case of `O=C(COc1ccccc1Cl)Nc1nnc(-c2ccc3c(c2)OCCO3)o1`, the EC50 in [8] was 3.1 µM (active).

As to `O=C(COc1ccccc1F)Nc1nnc(-c2ccc3c(c2)CCCC3)o1`, the concentration for a half-maximal effect (EC50) in assay [8] is 1.7 µM (active).

For orientation: AC50 means the concentration at which the activity in the assay is half-maximal. `CCn1cc(/C=C(\NC(=O)c2ccccc2)C(=O)N2CCOCC2)c2ccccc21`: the half-maximal activity concentration (AC50) on CAAX prenyl protease 2 is 5.85 µM (active); on Trypsin it was 23.6 µM (active). With `C/C(Cc1ccccc1)=N\NC(=O)CNC(=O)c1ccc(Cl)cc1Cl`, the IC50 on Coagulation factor XII is > 50 µM (inactive). Turning to `O=C(CSc1nc2ccccc2[nH]1)c1ccc(O)c(O)c1`, the IC50 in [4] is 4.79 µM (active); in assay [5] it was 5.44 µM (active). On to `COc1ccc(C(=O)Nc2cccc(Cl)c2)cc1`, for which, on Hexokinase, the IC50 is > 25 µM (inactive).

As for `CC(C)(C=O)C1=CC(=O)c2ccccc2C1=O`, the results for the IC50 (at Beta Lactamase; in [10]; at Hexokinase HKDC1) were 11.5 µM (inactive), 1.23 µM (active) and 27.9 µM (inactive), respectively. Further, the concentration for a half-maximal effect (EC50) in assay [9] was 4.58 µM (active); in assay [11], 4.68 µM (active).
